Results from patent US5834452A, “1- or 6-hydroxylated steroids” (Roussel Uclaf, priority 1996, dated 1998).

Legend:
[1] = tested on: endometrial proliferation (uterine lace); assay: Progestomimetic activity: endometrial transformation in the rabbit (Clauberg-McPhail test); format: in vivo; design: key to Maximal activity on the uterine lace (McPhail index) / Average uterine lace (McPhail Index): McPhail scale 0–4 with 0.5 steps (endometrial proliferation); details: for Average uterine lace (McPhail Index): s/c, day 8 to day 11
Description: 2. --Determination of the progestomimetic activity of the products of the invention: Endometrial transformation in the rabbit. The animals used were impuberal female rabbits which were 40-45 days old. The animals were treated with estradiol (5 ug/0.2 ml/rabbit in solution of corn oil, 10% ethanol) by subcutaneous route from day 1 to day 5, then the product to be studied was administered from day 8 to day 11. On day 12, the animals were sacrificed and a median portion of each uterine cornua was removed from each animal and fixed in Bouin's liquid for histological study. After fixing, the samples were dehydrated, included, cut, mounted, the paraffin was removed and then the sample was stained with hemalum-eosin-saffron. […] Then, for each of the cornua, a semi-quantitative evaluation of the endometrial proliferation (uterine lace) was carried out by the McPhail scale from 0 to 4 with 0.5 intermediates and the two figures were averaged. Similarly, the degree of hypertrophy of the cornua was evaluated by the same scale. At higher magnification, morphological observations of the mucous membrane or the myometrium could possibly be formulated. The 1-OH metabolite (product A) was tested at doses of 10, 100, 1000 μg/kg by subcutaneous route as well as orally at a dose of 1000 μg/kg. The 6-OH metabolite (product B) was tested at doses of 100, 1000 and 10000 μg/kg subcutaneously. As a control, progesterone was administered at doses of 100 and 1000 μg/kg by subcutaneous route. The averages were produced for the uterine lace (McPhail Index).

[2] = target: T1, Human progesterone receptor (HPR) (Homo sapiens, UniProt P06401); assay: Relative bond affinity (RBA), recombinant human progestogen receptor, charcoal dextran technique; format: binding; details: 24 h at 0° C., Progesterone = 100
T1 construct: made in house; host or cells: SF9 insect cells (ATCC CRL1711), baculovirus, lysate supernatant
T1 sequence (P06401 1-933): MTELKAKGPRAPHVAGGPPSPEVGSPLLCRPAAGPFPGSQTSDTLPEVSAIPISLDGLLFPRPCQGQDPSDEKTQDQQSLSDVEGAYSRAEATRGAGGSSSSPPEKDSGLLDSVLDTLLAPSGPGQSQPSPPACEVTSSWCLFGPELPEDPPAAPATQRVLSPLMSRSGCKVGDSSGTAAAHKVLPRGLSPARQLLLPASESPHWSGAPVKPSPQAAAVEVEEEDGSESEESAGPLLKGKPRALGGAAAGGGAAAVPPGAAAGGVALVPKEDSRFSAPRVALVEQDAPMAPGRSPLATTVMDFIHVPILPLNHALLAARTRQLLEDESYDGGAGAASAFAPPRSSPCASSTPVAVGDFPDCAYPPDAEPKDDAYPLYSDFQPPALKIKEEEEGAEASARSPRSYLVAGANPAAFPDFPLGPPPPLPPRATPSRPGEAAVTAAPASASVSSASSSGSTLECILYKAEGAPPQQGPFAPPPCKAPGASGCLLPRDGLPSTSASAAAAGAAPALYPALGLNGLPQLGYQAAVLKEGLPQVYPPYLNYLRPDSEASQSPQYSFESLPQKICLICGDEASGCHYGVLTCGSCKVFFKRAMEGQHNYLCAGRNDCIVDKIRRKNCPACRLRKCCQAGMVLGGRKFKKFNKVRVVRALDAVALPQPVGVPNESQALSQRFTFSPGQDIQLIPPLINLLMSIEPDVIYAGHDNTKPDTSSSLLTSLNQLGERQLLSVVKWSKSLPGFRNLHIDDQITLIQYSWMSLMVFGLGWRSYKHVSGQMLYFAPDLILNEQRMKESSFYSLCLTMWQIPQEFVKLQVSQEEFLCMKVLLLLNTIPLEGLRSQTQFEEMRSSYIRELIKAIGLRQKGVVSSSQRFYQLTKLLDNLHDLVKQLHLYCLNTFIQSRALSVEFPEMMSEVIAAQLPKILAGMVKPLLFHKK
Description: The human recombinant receptor (HGR, HPR, HAR, HMR, HER) was used.
Human progesterone receptor (HPR):
The recombinant human progestogen receptor was obtained by the superexpression in a cell system of insects--Baculovirus, according to the methodology described by Webb et al (Journal of Methods in Cell and Molecular Biology, (1990) Vol. 2 No. 4, p. 173-188) and the application of which was described for the expression of human hormonal receptors, for example the human glucocorticoid receptor (Srinivasan et al, Molecular Endocrinology, (1990) Vol. 4 No. 2, p. 209-216.
The BaculoGold Transfection Kit (PharMingen, reference 21000K) was used to insert the cDNA fragment described by Kastner et al (The EMBO Journal, (1990), Vol. 9 No. 5, p. 1603-1614), containing the region coding for the human progestogen receptor and to prepare the corresponding recombinant virus. The recombinant virus obtained in this way was used to express the progestogen receptor in SF9 insect cells (ATCC CRL1711), according to the known methodology cited previously.
2×10^7 to 2.5×10^7 SF9 cells were cultured in a 175 ml "Falcon" flask in the TNM-FH medium supplemented with 10% fetal calf serum (FCS) and with 50 micrograms/ml of gentamycin. After infection, then incubation at 27° C. for 40 to 42 hours, the cells were taken up in 1 ml of lysis buffer (1), lysed by 2 cycles of freezing-thawing (-80° C./ 0° C.), then centrifuged at 4° C. for 30 minutes at 20,900 g. The supernatant, containing the recombinant human progestogen receptor, was stored in liquid nitrogen in quantities of 1 ml.
The supernatant was diluted at the time of use with 10 mM Tris buffer, 0.25M saccharose, HCl pH 7.4 containing 0.1% of gelatin and then incubated at 0° C. for 24 hours with a constant concentration (T) of tritiated 17α, 21-dimethyl-19-nor-Δ^4,9 pregnadiene-3,20-dione in the presence of increasing concentrations of either unlabelled progesterone (0-2500×10^-9 M), or the unlabelled product to be tested (1 to 25000×10^-9 M). The concentration of bound tritiated 17,21-dimethyl-19-nor-Δ^4,9 -pregnadiene-3,20-dione (B) was then measured in each incubate using the charcoal dextran adsorption technique.
Calculation of the relative bond affinity (RBA).
The following two curves were drawn: the percentage of bound tritiated hormone B/BO as a function of the logarithm of the concentration of unlabelled reference hormone or as a function of the logarithm of the concentration of unlabelled test product. The straight line of the following equation was determined: […]
The relative bond affinity (RBA) of the test product was determined by the equation: […]

SMILES	Average uterine lace (McPhail Index) ([1]; rabbit, 0,01 mg/kg)	Average uterine lace (McPhail Index) ([1]; rabbit, 0,1 mg/kg)	RBA, Human progestogen receptor [2]	RBA, Human progestogen receptor ([2]; listed as product B)	minimal effective dose ([1]; Oryctolagus cuniculus, rabbit, note on this test, read-out: Dose from which progestomimetic activity starts)
C[C@H](O)C(=O)[C@@]1(C)CC[C@H]2[C@@H]3C[C@@H](O)C4=CC(=O)CCC4=C3CC[C@@]21C [Product B, [6β, 17β-(S)]-6-hydroxy-17-(2-hydroxy-1-oxopropyl)-17-methyl-Δ^4,9-estradiene-3-one]	1,4	2	12	moderate RBA	–
C[C@H](O)C(=O)[C@@]1(C)CC[C@H]2[C@@H]3CCC4=CC(=O)CCC4=C3CC[C@@]21C [Trimegestone, [17β-(S)]-17-(2-hydroxy-1-oxopropyl)-17-methyl-Δ^4,9-estradiene-3-one, reference compound]	–	–	588	–	1 µg/kg
